Earlier results on one compound are cited in patent US8435497B2, “Formoterol of and ciclesonide combination” (Takeda GmbH, priority 2003, dated 2013).

The conditions of series [1]: relative to budesonide.
Assay in series [2]: not given
This is another data set of the same source.

On to `CC(C)C(=O)OCC(=O)[C@@]12O[C@H](C3CCCCC3)O[C@@H]1C[C@H]1[C@@H]3CCC4=CC(=O)C=C[C@]4(C)[C@H]3[C@@H](O)C[C@@]12C` [Ciclesonide, [11β,16α(R)]-16,17-[(Cyclohexylmethylen)bis(oxy)]-11-hydroxy-21-(2-methyl-1-oxopropoxy)pregna-1,4-dien-3,20-dion], for which the “anti-inflammatory activity compared with budesonide” value in series [1] is “higher”. Also, where the note is “in vivo”, the systemic activity result is “low systemic activity”. The “systemic activity compared with budesonide” value (relative to budesonide) was “three times lower”. The “metabolism by liver oxidases” value in series [2] (liver oxidases) is reported as “very high”. In addition, the “concentration of the drug in the lungs” value in series [2] (lungs) is reported as “high”. The “absorption after oral administration” value in series [2] (oral administration) is “only moderately absorbed”. Moreover, the plasma half-life result in series [2] (plasma) is listed as “low plasma half-life”.
